From ChEMBL document CHEMBL5543122, “Discovery of HC-7366: An Orally Bioavailable and Efficacious GCN2 Kinase Activator” (J Med Chem, 2024)

Assays:
[1] = Unbound Cmax in Sprague-Dawley rat at 3 mg/kg, po measured upto 24 hrs; type: ADME, organism-based; conditions: in vivo
[2] = Unbound AUC in Sprague-Dawley rat at 3 mg/kg, po measured upto 24 hrs; type: ADME, organism-based; conditions: in vivo
Cytochrome P450 3A4 = Cytochrome P450 3A4 (Homo sapiens, UniProt P08684); assay: Inhibition of CYP3A4 in human liver microsomes using midazolam substrate incubated for 5 mins in presence of NADPH by UPLC-MS/MS analysis
Sequence of Cytochrome P450 3A4 (P08684 whole entry): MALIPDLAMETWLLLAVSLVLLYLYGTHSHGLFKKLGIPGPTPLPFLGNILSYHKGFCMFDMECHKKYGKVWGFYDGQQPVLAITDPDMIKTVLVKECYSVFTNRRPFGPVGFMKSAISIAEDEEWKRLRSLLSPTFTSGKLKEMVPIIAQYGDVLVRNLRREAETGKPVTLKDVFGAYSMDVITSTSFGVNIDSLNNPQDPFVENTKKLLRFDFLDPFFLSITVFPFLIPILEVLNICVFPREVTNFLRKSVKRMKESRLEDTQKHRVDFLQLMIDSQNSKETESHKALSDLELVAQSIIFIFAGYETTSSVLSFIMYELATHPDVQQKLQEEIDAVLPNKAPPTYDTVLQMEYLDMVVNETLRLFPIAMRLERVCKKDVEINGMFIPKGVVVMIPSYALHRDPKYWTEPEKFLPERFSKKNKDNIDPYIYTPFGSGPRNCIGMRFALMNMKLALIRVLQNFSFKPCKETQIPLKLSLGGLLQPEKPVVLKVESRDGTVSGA

[3] = Unbound fraction in BALB/c mouse plasma at 3 mg/kg, po and 1 mg/kg, iv measured upto 24 hrs; type: ADME, organism-based
[4] = target: Phosphatidylinositol 4-phosphate 3-kinase C2 domain-containing subunit beta (Homo sapiens, UniProt O00750); assay: Inhibition of PIK3C2B in human MOLM16 cells; type: cell-based
Sequence of Phosphatidylinositol 4-phosphate 3-kinase C2 domain-containing subunit beta (O00750 whole entry, the tested form may be a part): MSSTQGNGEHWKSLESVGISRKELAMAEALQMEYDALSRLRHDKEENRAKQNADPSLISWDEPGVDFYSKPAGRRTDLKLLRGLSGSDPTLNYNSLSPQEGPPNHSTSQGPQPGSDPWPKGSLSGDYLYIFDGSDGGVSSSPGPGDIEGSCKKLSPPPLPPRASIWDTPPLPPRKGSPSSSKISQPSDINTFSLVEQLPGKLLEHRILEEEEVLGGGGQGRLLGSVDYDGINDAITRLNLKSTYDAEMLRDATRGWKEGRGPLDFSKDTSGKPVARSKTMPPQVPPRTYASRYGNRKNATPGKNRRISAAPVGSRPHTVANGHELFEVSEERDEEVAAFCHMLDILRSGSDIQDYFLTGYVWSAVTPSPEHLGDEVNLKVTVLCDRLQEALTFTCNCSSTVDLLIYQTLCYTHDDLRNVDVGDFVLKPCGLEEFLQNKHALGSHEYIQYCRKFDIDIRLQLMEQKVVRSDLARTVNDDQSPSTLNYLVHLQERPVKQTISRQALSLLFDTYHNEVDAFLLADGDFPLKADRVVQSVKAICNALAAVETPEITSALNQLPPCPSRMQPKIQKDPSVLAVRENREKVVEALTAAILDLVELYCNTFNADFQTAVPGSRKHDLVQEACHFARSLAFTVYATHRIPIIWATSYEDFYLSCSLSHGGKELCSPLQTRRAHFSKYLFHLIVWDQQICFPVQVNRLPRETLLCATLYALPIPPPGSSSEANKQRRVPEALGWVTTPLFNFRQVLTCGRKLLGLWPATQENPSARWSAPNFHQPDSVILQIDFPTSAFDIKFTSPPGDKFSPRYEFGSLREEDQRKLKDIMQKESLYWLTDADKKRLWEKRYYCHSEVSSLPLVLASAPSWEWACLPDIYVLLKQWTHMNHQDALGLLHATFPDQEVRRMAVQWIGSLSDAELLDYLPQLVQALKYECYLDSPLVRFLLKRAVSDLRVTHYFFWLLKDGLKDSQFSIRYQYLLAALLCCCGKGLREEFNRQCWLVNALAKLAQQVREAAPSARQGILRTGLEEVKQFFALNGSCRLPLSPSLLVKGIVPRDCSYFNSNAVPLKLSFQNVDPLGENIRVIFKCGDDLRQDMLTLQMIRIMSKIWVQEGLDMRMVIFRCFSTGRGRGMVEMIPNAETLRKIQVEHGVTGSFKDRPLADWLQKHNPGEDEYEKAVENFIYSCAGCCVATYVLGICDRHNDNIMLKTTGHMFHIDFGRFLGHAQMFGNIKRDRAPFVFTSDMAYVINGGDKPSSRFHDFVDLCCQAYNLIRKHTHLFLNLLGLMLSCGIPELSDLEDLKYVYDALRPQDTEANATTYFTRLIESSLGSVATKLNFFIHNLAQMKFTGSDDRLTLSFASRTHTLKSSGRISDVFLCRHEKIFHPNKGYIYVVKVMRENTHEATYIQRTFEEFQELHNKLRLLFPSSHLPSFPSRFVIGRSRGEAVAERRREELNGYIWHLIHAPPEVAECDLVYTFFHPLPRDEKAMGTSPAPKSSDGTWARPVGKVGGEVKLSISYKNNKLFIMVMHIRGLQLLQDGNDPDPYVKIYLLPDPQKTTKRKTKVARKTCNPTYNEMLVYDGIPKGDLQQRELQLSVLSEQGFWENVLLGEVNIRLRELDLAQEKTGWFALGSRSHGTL

[5] = Half-life in Sprague-Dawley rat at 1 mg/kg, iv measured upto 24 hrs; type: ADME, organism-based; conditions: in vivo
[6] = Unbound clearance in Sprague-Dawley rat plasma at 1 mg/kg, iv measured upto 24 hrs; type: ADME, organism-based; conditions: in vivo
[7] = target: T1, Dual specificity mitogen-activated protein kinase kinase 5 (Homo sapiens, UniProt Q13163); assay: Inhibition of MAP2K5 in human MOLM16 cells; type: cell-based
T1 sequence (Q13163 whole entry): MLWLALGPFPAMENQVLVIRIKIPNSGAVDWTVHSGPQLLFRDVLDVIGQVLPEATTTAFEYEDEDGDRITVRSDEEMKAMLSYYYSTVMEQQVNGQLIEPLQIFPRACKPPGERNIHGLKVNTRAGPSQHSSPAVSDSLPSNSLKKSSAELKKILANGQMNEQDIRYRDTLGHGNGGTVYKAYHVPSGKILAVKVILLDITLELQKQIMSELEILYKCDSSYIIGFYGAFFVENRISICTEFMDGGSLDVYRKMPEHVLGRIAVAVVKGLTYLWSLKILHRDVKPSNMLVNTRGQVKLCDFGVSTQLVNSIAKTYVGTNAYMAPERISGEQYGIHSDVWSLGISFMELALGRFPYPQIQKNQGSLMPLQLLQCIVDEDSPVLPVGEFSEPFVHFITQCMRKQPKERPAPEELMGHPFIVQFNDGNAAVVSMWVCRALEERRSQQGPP

[8] = target: T2, Serine/threonine-protein kinase Nek1 (Homo sapiens, UniProt Q96PY6); assay: Inhibition of NEK1 in human MOLM16 cells; type: cell-based
T2 sequence (Q96PY6 whole entry): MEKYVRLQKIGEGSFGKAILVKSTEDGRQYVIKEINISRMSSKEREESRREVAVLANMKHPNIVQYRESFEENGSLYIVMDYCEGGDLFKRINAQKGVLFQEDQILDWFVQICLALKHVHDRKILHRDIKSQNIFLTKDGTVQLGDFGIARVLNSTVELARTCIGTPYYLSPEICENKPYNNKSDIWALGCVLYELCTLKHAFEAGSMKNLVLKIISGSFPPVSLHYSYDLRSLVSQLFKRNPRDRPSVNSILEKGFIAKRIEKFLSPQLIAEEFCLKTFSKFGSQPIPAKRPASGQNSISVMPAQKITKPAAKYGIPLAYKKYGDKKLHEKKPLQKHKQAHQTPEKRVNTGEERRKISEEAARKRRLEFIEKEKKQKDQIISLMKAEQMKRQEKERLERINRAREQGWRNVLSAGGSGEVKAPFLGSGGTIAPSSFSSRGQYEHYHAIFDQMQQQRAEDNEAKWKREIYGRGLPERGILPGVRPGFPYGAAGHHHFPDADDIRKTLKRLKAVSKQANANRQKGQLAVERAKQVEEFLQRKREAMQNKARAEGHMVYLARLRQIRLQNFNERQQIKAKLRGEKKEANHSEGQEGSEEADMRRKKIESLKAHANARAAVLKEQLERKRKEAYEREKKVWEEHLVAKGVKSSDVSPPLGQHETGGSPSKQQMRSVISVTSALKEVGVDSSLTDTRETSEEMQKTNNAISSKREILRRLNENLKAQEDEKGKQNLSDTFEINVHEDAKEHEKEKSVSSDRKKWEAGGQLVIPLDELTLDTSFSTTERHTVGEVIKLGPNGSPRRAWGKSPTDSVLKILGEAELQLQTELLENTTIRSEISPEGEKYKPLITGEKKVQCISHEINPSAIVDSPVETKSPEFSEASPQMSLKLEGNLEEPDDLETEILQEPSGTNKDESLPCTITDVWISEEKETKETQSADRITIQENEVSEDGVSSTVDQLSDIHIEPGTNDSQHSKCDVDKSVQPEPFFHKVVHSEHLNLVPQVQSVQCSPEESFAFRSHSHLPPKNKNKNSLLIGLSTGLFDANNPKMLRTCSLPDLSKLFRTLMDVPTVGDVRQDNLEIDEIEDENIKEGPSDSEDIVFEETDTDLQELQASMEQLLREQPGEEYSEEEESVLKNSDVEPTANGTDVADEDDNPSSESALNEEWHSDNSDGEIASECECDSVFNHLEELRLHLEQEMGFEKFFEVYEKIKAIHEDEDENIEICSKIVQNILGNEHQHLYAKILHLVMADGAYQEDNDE

[9] = Antitumor activity against human MOLM16 cells xenografted in BALB/c nude mouse assessed as tumor growth inhibition at 3 mg/kg administered twice a day for 17 days; type: functional, MOLM-16; conditions: MOLM16, 408 h, time 17 day, read-out: TGI
[10] = Oral bioavailability in Sprague-Dawley rat at 3 mg/kg measured upto 24 hrs; type: ADME, organism-based; conditions: in vivo, po, 3 mg/kg, 24 h

CNC(=O)c1ncn2cc(-c3c(F)ccc(NS(=O)(=O)c4cc(Cl)cnc4OC)c3F)ncc12
fCmax [1]: 7.1 nM | fAUC [2]: 0.048 µM·h | IC50 (Cytochrome P450 3A4): 33 µM | fraction unbound at 24 h [3]: 0.002 | IC50 [4]: 3.4 µM | half-life [5]: 6.3 h | CL free [6]: 290 mL/min/kg | IC50 [7]: 2.9 µM | IC50 [8]: 9.3 µM | inhibition in vivo at 3 mg/kg [9]: 98% | F [10]: 29%
